# Measurements reported in patent US6239104A, “Isolation and structural elucidation of the cytostatic linear and cyclo-depsipeptides dolastatin 16, dolastatin 17, and dolastatin 18” (priority 1999, dated 2001).
# Starred links: 1 amine or outer side, 2 acyl side, 3 side chain; linkers in the order of their positions; H or OH if unused. Non-standard residues stand in square brackets, D forms with d. Residues, ends and D or L forms follow the SMILES beside them. X1 = CC(Cc1ccccc1)C(N[*:1])C(=O)[*:2]; X2 = CC(C)C(N[*:1])C(C)C(=O)[*:2]; dNMeV = CN[C@@H](C(=O)O)C(C)C; dHiv = CC(C)[C@@H](O)C(=O)O; Lac = C[C@H](O)C(=O)O
# Columns and labels:
# Type in all cases: cell-based
# SK-MEL-5 = test: NCI human cancer cell line minipanel, melanoma SK-MEL-5
# From the text: (§1) The administration of Dolastatin 16 is useful for treating neoplastic disease associated with malignant cell growth, and expectedly its synthetic counterpart, as well as, its pharmaceutically and physiologically active derivatives will be useful for treating neoplastic disease associated with malignant cell growth in animals and humans. For example, Dolastatin 16 was screened against a minipanel of the U.S. National Cancer Institute's human cancer cell lines utilizing protocols described by Michael R. Boyd and Kenneth D. Paul in Some Practical Considerations and Applications of the National Cancer Institute In Vitro Anticancer Drug Discovery Screen, 34 DRUG D[…] 91 (1995) (and references cited therein).
# [1] = test system: five human leukemia cell lines; test: NCI screen, five human leukemia cell lines; details: in words
# From the text: as §1
# SF-295 = test: NCI human cancer cell line minipanel, brain SF-295
# From the text: as §1
# as §1, with “17” for “16”, “91 (1995) (and references cited therein).” left out
# NCI-H460 = test: NCI human cancer cell line minipanel, lung NCI-H460
# From the text: as §1
# as §1, with “17” for “16”, “91 (1995) (and references cited therein).” left out
# KM 20L2 = test: NCI human cancer cell line minipanel, colon KM 20L2
# From the text: as §1
# as §1, with “17” for “16”, “91 (1995) (and references cited therein).” left out
# [2] = test system: complete panel of sixty human cancer cell lines; test: NCI complete panel of sixty human cancer cell lines
# From the text: as §1
# [3] = test system: a selection of human cancer cell lines, including lung cancer; test: NCI minipanel, selection of human cancer cell lines; details: in words
# From the text: as §1, with “18” for “16”
SMILES,GI50 (SK-MEL-5) [ng/mL],growth inhibition [1],GI50 (SF-295) [ng/mL],GI50 (NCI-H460; lung NCI-H460) [ng/mL],GI50 (KM 20L2) [ng/mL],GI50 [2] [nM],growth inhibition [3],ED50 (NCI-H460; lung cancer NCI-H460) [µg/mL]
"CC(C)C1NC(=O)[C@@H]2CCCN2C(=O)C(C(C)Cc2ccccc2)NC(=O)[C@@H]2CCCN2C(=O)[C@@H](C(C)C)N(C)C(=O)[C@@H](C(C)C)OC(=O)[C@@H]2CCCN2C(=O)[C@H](C)OC(=O)C1C (some centres unmarked) [Dolastatin 16, cyclo-(Pro^1 --Dpv^2 --Pro^3 --Dml^4 --O--Lac^5 --Pro^6 --O--Hiv^7 --MeVal^8)] (cyclo([Lac]P[dHiv][dNMeV]P[X1]P[X2]))",3.3,comparable inhibitory results,5.2,0.96,1.2,250,–,–
"CCCC(=O)C(C)(C)C(=O)N[C@@H](CC(C)C)C(=O)N(C)[C@H](Cc1ccccc1)C(=O)N[C@@H](Cc1ccccc1)c1nccs1 [Dolastatin 18, Dhex--Leu--MePhe--Doe]",–,–,–,–,–,–,significantly inhibit growth,0.39
